In US9676732B2, “Ethynyl derivatives” (Hoffmann-La Roche Inc., priority 2013, dated 2017):

What was measured:
[1] = tested on: marble burying test in mice; conditions: preclinical model of anxiety; cited from earlier work
[2] = tested on: EPM in rats; conditions: cited from earlier work
[3] = tested on: EPM in mice; conditions: preclinical model of anxiety; cited from earlier work
[4] = tested on: 6-OHDA rodent model of PD; conditions: cited from earlier work
[5] = molecular target: human mGlu4 receptor (Homo sapiens (Human), UniProt Q14833); assay: Ca2+ mobilization in vitro assay on recombinant human mGlu4 expressed in HEK293 cells (mGlu4 PAM); type: cell-based; conditions: for EC50: HEK293 cells stably expressing human mGlu4, L-AP4 added at EC20, read-out: EC50 (nM) mGlu4PAM; for Eff. (%): maximal response in % of the maximal stimulatory effect obtained with saturating concentrations of L-AP4
Chain of human mGlu4 receptor (Q14833 33-912): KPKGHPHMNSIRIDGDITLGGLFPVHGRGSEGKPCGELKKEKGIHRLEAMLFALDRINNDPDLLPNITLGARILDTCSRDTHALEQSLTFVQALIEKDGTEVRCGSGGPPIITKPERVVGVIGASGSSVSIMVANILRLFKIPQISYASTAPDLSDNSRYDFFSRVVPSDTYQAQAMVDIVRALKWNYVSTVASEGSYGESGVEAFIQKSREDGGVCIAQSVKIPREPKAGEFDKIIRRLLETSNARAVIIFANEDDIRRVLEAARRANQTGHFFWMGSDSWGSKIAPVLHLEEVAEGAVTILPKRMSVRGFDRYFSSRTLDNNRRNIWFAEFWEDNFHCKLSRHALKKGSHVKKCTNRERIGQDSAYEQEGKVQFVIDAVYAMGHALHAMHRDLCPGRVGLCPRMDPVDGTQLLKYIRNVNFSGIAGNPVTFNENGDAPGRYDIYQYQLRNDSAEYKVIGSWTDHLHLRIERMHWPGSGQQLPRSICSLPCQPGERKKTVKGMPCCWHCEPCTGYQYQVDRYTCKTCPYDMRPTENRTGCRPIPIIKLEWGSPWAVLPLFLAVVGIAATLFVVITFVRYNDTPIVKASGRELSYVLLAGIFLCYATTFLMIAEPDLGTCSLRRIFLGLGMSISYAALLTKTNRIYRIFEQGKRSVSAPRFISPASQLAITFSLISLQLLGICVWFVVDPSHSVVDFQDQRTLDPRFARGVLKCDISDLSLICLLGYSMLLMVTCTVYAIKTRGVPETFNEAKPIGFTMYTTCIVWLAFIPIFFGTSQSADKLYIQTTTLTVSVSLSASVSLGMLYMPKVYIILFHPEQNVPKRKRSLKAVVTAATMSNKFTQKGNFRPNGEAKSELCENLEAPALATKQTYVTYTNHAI
Protocol: Determination of EC50 Values Using a Ca2+ Mobilization In Vitro Assay on Recombinant Human mGlu4 Expressed in HEK293 Cells:
A monoclonal HEK-293 cell line stably transfected with a cDNA encoding for the human mGlu4 receptor was generated; for the work with mGlu4 Positive Allosteric Modulators (PAMs), a cell line with low receptor expression levels and low constitutive receptor activity was selected to allow the differentiation of agonistic versus PAM activity. Cells were cultured according to standard protocols (Freshney, 2000) in Dulbecco's Modified Eagle Medium with high glucose supplemented with 1 mM glutamine, 10% (vol/vol) heat-inactivated bovine calf serum, Penicillin/Streptomycin, 50 μg/ml hygromycin and 15 μg/ml blasticidin (all cell culture reagents and antibiotics from Invitrogen, Basel, Switzerland).
About 24 hrs before an experiment, 5×10^4 cells/well were seeded in poly-D-lysine coated, black/clear-bottomed 96-well plates. The cells were loaded with 2.5 μM Fluo-4AM in loading buffer (1×HBSS, 20 mM HEPES) for 1 hr at 37° C. and washed five times with loading buffer. The cells were transferred into a Functional Drug Screening System 7000 (Hamamatsu, Paris, France), and 11 half logarithmic serial dilutions of test compound at 37° C. were added and the cells were incubated for 10-30 min. with on-line recording of fluorescence. Following this pre-incubation step, the agonist (2S)-2-amino-4-phosphonobutanoic acid (L-AP4) was added to the cells at a concentration corresponding to EC20 with on-line recording of fluorescence; in order to account for day-to-day variations in the responsiveness of cells, the EC20 of L-AP4 was determined immediately ahead of each experiment by recording of a full dose-response curve of L-AP4.
Responses were measured as peak increase in fluorescence minus basal (i.e. fluorescence without addition of L-AP4), normalized to the maximal stimulatory effect obtained with saturating concentrations of L-AP4. Graphs were plotted with the % maximal stimulatory using XLfit, a curve fitting program that iteratively plots the data using Levenburg Marquardt algorithm. The single site competition analysis equation used was y=A+((B−A)/(1+((x/C)D))), where y is the % maximal stimulatory effect, A is the minimum y, B is the maximum y, C is the EC50, x is the log 10 of the concentration of the competing compound and D is the slope of the curve (the Hill Coefficient). From these curves the EC50 (drug concentration at which 50% of the maximal receptor activation was achieved), the Hill coefficient as well as the maximal response in % of the maximal stimulatory effect obtained with saturating concentrations of L-AP4 were calculated (see FIG. 1).
A depression of the signal observed after addition of the EC20 concentration of L-AP4 was indicative of an inhibitory activity of the test compound. • FIG. 1: Illustration of the experimental outline for mGlu4 PAM Ca2+ mobilization screening assay and the determination of EC50 and % Emax values.

[6] = tested on: mice treated with 1-Methyl-4-Phenyl-1,2,3,6-Tetrahydropyridine (MPTP); conditions: cited from earlier work

| Compound | EC50 [5] | Eff. (%) [5] | further results |
| --- | --- | --- | --- |
| Cc1ccnc(Nc2nc(-c3cn[nH]c3)c(C)s2)n1 [ADX88178] |  |  | activity in marble burying test [1]: active; profile in rat EPM test ([2]; rat, after oral dosing): anxiolytic-like profile; activity in EPM ([2]; rats, preclinical model of anxiety): active; activity in EPM [3]: active |
| N[C@@H](CCP(=O)(O)O)C(=O)O [L-AP4, (2S)-2-amino-4-phosphonobutanoic acid] |  |  | neuroprotection [4]: neuroprotective effects |
| COCCn1c(=O)n(-c2ccc(C#Cc3ccccc3)cc2Cl)c(=O)c2ccccc21 [Example 50, 3-[2-Chloro-4-(2-phenylethynyl)phenyl]-1-(2-methoxyethyl)quinazoline-2,4-dione] | 499 nM | 110% |  |
| O=C(Nc1ccccc1)C12CC1/C(=N\O)c1ccccc1O2 (single isomer, unassigned; (-)) [(−)-PHCCC] |  |  | nigrostriatal degeneration [6]: reduced nigrostriatal degeneration |
| Cn1c(=O)n(-c2c(F)cc(C#Cc3ccccc3)cc2F)c(=O)c2nccc(Cl)c21 [Example 61, 8-Chloro-3-[2,6-difluoro-4-(2-phenylethynyl)phenyl]-1-methyl-pyrido[3,2-d]pyrimidine-2,4-dione] | 91 nM | 129% |  |
| O=c1c2ccccc2n(C2CCC2)c(=O)n1-c1ccc(C#Cc2ccccc2)cc1Cl [Example 53, 3-[2-Chloro-4-(2-phenylethynyl)phenyl]-1-cyclobutyl-quinazoline-2,4-dione] | 102 nM | 123% |  |
| Cn1c(=O)n(-c2ccc(C#Cc3ccccc3)cc2Cl)c(=O)c2ncccc21 [Example 9, 3-[2-Chloro-4-(2-phenylethynyl)phenyl]-1-methyl-pyrido[3,2-d]pyrimidine-2,4-dione] | 308 nM | 167% |  |
| Cn1c(=O)n(-c2ccc(C#Cc3ccccc3)cc2Cl)c(=O)c2ccc(F)c(F)c21 [Example 19, 3-[2-Chloro-4-(2-phenylethynyl)phenyl]-7,8-difluoro-1-methyl-quinazoline-2,4-dione] | 134 nM | 73% |  |
| Cc1cccc2c(=O)n(-c3ncc(C#Cc4ccccc4)cc3Cl)c(=O)n(C)c12 [Example 46, 3-[3-Chloro-5-(2-phenylethynyl)-2-pyridyl]-1,8-dimethyl-quinazoline-2,4-dione] | 141 nM | 113% |  |
| CC(C)n1c(=O)n(-c2ccc(C#Cc3ccccc3)cn2)c(=O)c2ccccc21 [Example 55, 1-Isopropyl-3-[5-(2-phenylethynyl)-2-pyridyl]quinazoline-2,4-dione] | 766 nM | 123% |  |

More lines, in order of falling EC50 [5], values ahead:

| EC50 [5] | Eff. (%) [5] | Compound | further results |
| --- | --- | --- | --- |
| 175 nM | 122% | Cn1cnc2c1c(=O)n(-c1ccc(C#Cc3ccccc3)cc1Cl)c(=O)n2C [Example 11, 1-[2-Chloro-4-(2-phenylethynyl)phenyl]-3,7-dimethyl-purine-2,6-dione] |  |
| 169 nM | 146% | CC(C)n1c(=O)n(-c2ncc(C#Cc3cccnc3)cc2Cl)c(=O)c2nn(C)cc21 [Example 59, 6-[3-Chloro-5-[2-(3-pyridyl)ethynyl]-2-pyridyl]-4-isopropyl-2-methyl-pyrazolo[4,3-d]pyrimidine-5,7-dione] |  |
| 91 nM | 89% | O=c1c2cccc3c2n(c(=O)n1-c1c(F)cc(C#Cc2cccnc2)cc1F)CC3 [Example 30, 2-(2,6-Difluoro-4-(pyridin-3-ylethynyl)phenyl)-5,6-dihydro-1H-pyrrolo[3,2,1-ij]quinazoline-1,3(2H)-dione] |  |
| 75 nM | 184% | O=c1c2ccccc2n(C2COC2)c(=O)n1-c1c(F)cc(C#Cc2ccccc2)cc1F [Example 66, 3-[2,6-Difluoro-4-(2-phenylethynyl)phenyl]-1-(oxetan-3-yl)quinazoline-2,4-dione] |  |
| 65 nM | 100% | CCc1cccc2c(=O)n(-c3ccc(C#Cc4ccccc4)cc3Cl)c(=O)n(C)c12 [Example 8, 3-[2-Chloro-4-(2-phenylethynyl)phenyl]-8-ethyl-1-methyl-quinazoline-2,4-dione] |  |
| 37 nM | 120% | CC(C)n1c(=O)n(-c2c(F)cc(C#Cc3cccnc3)cc2Cl)c(=O)c2nn(C)cc21 [Example 58, 6-[2-Chloro-6-fluoro-4-[2-(3-pyridyl)ethynyl]phenyl]-4-isopropyl-2-methyl-pyrazolo[4,3-d]pyrimidine-5,7-dione] |  |
| 33 nM | 104% | Cn1c(=O)n(-c2c(F)cc(C#Cc3ccccc3)cc2F)c(=O)c2scnc21 [Example 32, 6-[2,6-Difluoro-4-(2-phenylethynyl)phenyl]-4-methyl-thiazolo[4,5-d]pyrimidine-5,7-dione] |  |
| 29 nM | 86% | Cc1csc2c(=O)n(-c3c(F)cc(C#Cc4cccnc4)cc3F)c(=O)n(C)c12 [Example 28, 3-[2,6-Difluoro-4-[2-(3-pyridyl)ethynyl]phenyl]-1,7-dimethyl-thieno[3,2-d]pyrimidine-2,4-dione] |  |
| 26 nM | 101% | Cc1cccc2c(=O)n(-c3c(F)cc(C#Cc4ccccc4)cc3F)c(=O)n(C)c12 [Example 24, 3-[2,6-Difluoro-4-(2-phenylethynyl)phenyl]-1,8-dimethyl-quinazoline-2,4-dione] |  |
